In article PMC8960095 (Virus Genes, 2022):
Where two headings read alike, the source gives them in different places.

Experiments:
wt CHIKV = conditions: MOI 0.005, cited from earlier work
Vero-E6 cells = conditions: same study as IC50 against wt CHIKV; cited from earlier work
wt CHIKV^Brazil [1] = assay: IC50 evaluation: inhibition of CHIKV-induced cell death; assay type: cell-based, Chikungunya virus; conditions: for dose-dependent inhibition of CPE / efficacy in Vero-B4: Vero-B4 cells, CHIKV^Brazil, T-1105 range 5–100 µM
wt CHIKV^Brazil [2] = assay: as above; assay type: cell-based, Chikungunya virus; conditions: for IC50: Chikungunya virus, 96 h, read-out: IC50 (µM) U138; for dose-dependent inhibition of CPE / antiviral effect in U138: U138 cells, wt CHIKV^Brazil
CHIKV^Brazil = assay type: cell-based, Chikungunya virus; conditions: MOI 0.64, RBV 410 µM (p < 0.001), HCQ 10 µM (p < 0.0001)
Toxicity assay [3] = conditions: human, U138 cells (non-infected)
U138 cells = assay: Toxicity assay; conditions: for cell damage in toxicity testing: non-infected U138, HCQ 10 µM, T-1105 10 and 50 µM, 4 days
Toxicity assay [4] = conditions: African green monkey, Vero-B4 cells (non-infected)
[5] = system: CHIKV Indian Ocean strain 899 (lab); conditions: MOI 0.01, Vero cells; cited from earlier work
Vero cells = conditions: cited from earlier work
Vero-B4 cells = assay: Toxicity assay; conditions: read-out: CC50 (µM) Vero-B4; non-infected Vero-B4 cells; MTS after 4 days

Structure (SMILES): CCN(CC)CCCC(C)Nc1ccnc2cc(Cl)ccc12 (stereo not shown) [CQ, chloroquine]
- IC50 (wt CHIKV; wt CHIKV): 5 to 10.6 µM
- CC50 (Vero-E6 cells): > 36 µM

Structure (SMILES): CCN(CCO)CCCC(C)Nc1ccnc2cc(Cl)ccc12 (stereo not shown) [Hydroxychloroquine, hydroxychloroquine]
- IC50 (wt CHIKV^Brazil [1]; Chikungunya virus, 96 h, read-out: IC50 (µM) Vero-B4): 18.3 µM
- dose-dependent inhibition of CPE / efficacy in Vero-B4 (wt CHIKV^Brazil [1]): dose-dependent inhibition of CPE
- IC50 (wt CHIKV^Brazil [2]): 4.14 µM
- dose-dependent inhibition of CPE / antiviral effect in U138 (wt CHIKV^Brazil [2]): dose-dependent inhibition of CPE
- protection of U138 cells from CPE by wt CHIKV^Brazil compared with CHIKV^Ross (CHIKV^Brazil): significantly better
- CC50 at 4 days (Toxicity assay [3]): 35.5 µM
- cell damage in toxicity testing (U138 cells): Neither T-1105 nor HCQ led to significant cell damage
- CC50 at 4 days (Toxicity assay [4]): 49.6 µM

Structure (SMILES): NC(=O)c1ncn([C@@H]2O[C@H](CO)[C@@H](O)[C@H]2O)n1 [Ribavirin, ribavirin]
- surviving cells (wt CHIKV^Brazil [1]; 1000 µM RBV (highest concentration), infected Vero-B4 cells, at MOI 0.325): 37.55 ± 6.15%
- dose-dependent inhibition of CPE / efficacy in Vero-B4 (wt CHIKV^Brazil [1]): dose-dependent inhibition of CPE
- IC50 (wt CHIKV^Brazil [2]): 166 µM
- dose-dependent inhibition of CPE / antiviral effect in U138 (wt CHIKV^Brazil [2]): dose-dependent inhibition of CPE
- protection of U138 cells from CPE by wt CHIKV^Brazil compared with CHIKV^Ross (CHIKV^Brazil): significantly better
- IC50 (wt CHIKV; comparable experiments in Vero-E6 cells): 424 to 766 µM
- IC50 (wt CHIKV; wt CHIKV): 424 µM
- CC50 (Vero-E6 cells): > 500 µM
- CC50 at 4 days (Toxicity assay [3]): > 500 µM
- viability at 4 days, 410 µM (Toxicity assay [3]): 70.4 ± 13.1%
- CC50 at 4 days (Toxicity assay [4]): > 1000 µM

Structure (SMILES): NC(=O)c1ncc[nH]c1=O [T-1105]
- dose-dependent inhibition of CPE / efficacy in Vero-B4 (wt CHIKV^Brazil [1]): no dose-dependent efficacy
- dose-dependent inhibition of CPE / antiviral effect in U138 (wt CHIKV^Brazil [2]): dose-dependent effect
- IC50 [5]: 7 to 47 µM
- CC50 (Vero cells): 571 µM
- cell damage in toxicity testing (U138 cells): Neither T-1105 nor HCQ led to significant cell damage
- CC50 (U138 cells; read-out: CC50 (µM) U138, non-infected U138 cells, MTS after 4 days): > 100 µM
- CC50 (Vero-B4 cells): > 100 µM
